In BindingDB's records for doi:10.1016/1074-5521(95)90264-3 (Smithkline Beecham Pharmaceuticals, 1995):

Target: Peptidyl-prolyl cis-trans isomerase FKBP1A (Homo sapiens, UniProt P62942)
Experiment: FKBP12 Assay
Source text: FKBP12 assay using rapamycin analogs.

Peptidyl-prolyl cis-trans isomerase FKBP1A, sequence (P62942 whole entry): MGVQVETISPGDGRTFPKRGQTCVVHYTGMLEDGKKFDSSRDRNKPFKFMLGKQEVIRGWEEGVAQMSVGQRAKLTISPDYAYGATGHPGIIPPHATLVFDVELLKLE

Row | SMILES | EC50 [nM] | Ki [nM]
1 | CO[C@@H]1C[C@H](C[C@@H](C)[C@@H]2CC(=O)[C@H](C)/C=C(\C)[C@@H](O)[C@@H](OC)C(=O)[C@H](C)C[C@H](C)/C=C/C=C/C=C(\C)[C@H](OCc3ccc(N=[N+]=[N-])c(I)c3)C[C@@H]3CC[C@@H](C)[C@@](O)(O3)C(=O)C(=O)N3CCCC[C@H]3C(=O)O2)CC[C@H]1O [Rapamycin C-7, analog 17a] | 90 | 30
2 | COC(=O)N[C@@H]1C[C@@H]2CC[C@@H](C)[C@@](O)(O2)C(=O)C(=O)N2CCCC[C@H]2C(=O)O[C@H]([C@H](C)C[C@@H]2CC[C@@H](O)[C@H](OC)C2)CC(=O)[C@H](C)/C=C(\C)[C@@H](O)[C@@H](OC)C(=O)[C@H](C)C[C@H](C)/C=C/C=C/C=C/1C [Rapamycin C-7, analog 7a] | > 10000 | 4.5
3 | COc1cc(OC)c([C@H]2C[C@@H]3CC[C@@H](C)[C@@](O)(O3)C(=O)C(=O)N3CCCC[C@H]3C(=O)O[C@H]([C@H](C)C[C@@H]3CC[C@@H](O)[C@H](OC)C3)CC(=O)[C@H](C)/C=C(\C)[C@@H](O)[C@@H](OC)C(=O)[C@H](C)C[C@H](C)/C=C/C=C/C=C/2C)c(OC)c1 [Rapamycin C-7, analog 9] | > 1000 | 7
4 | COc1ccc([C@@H]2C[C@@H]3CC[C@@H](C)[C@@](O)(O3)C(=O)C(=O)N3CCCC[C@H]3C(=O)O[C@H]([C@H](C)C[C@@H]3CC[C@@H](O)[C@H](OC)C3)CC(=O)[C@H](C)/C=C(\C)[C@@H](O)[C@@H](OC)C(=O)[C@H](C)C[C@H](C)/C=C/C=C/C=C/2C)c(OC)c1 [Rapamycin C-7, analog 8a] | 1000 | 9
5 | CO[C@@H]1C[C@H](C[C@@H](C)[C@@H]2CC(=O)[C@H](C)/C=C(\C)[C@@H](O)[C@@H](OC)C(=O)[C@H](C)C[C@H](C)/C=C/C=C/C=C(\C)[C@H](c3ccc[nH]3)C[C@@H]3CC[C@@H](C)[C@@](O)(O3)C(=O)C(=O)N3CCCC[C@H]3C(=O)O2)CC[C@H]1O [Rapamycin C-7, analog 11a] | 11 | 10
6 | CO[C@@H]1C[C@H](C[C@@H](C)[C@@H]2CC(=O)[C@H](C)/C=C(\C)[C@@H](O)[C@@H](OC)C(=O)[C@H](C)C[C@H](C)/C=C/C=C/C=C(\C)[C@H](OCc3ccccc3)C[C@@H]3CC[C@@H](C)[C@@](O)(O3)C(=O)C(=O)N3CCCC[C@H]3C(=O)O2)CC[C@H]1O [Rapamycin C-7, analog 14a] | 6 | 5
7 | COC(=O)N[C@H]1C[C@@H]2CC[C@@H](C)[C@@](O)(O2)C(=O)C(=O)N2CCCC[C@H]2C(=O)O[C@H]([C@H](C)C[C@@H]2CC[C@@H](O)[C@H](OC)C2)CC(=O)[C@H](C)/C=C(\C)[C@@H](O)[C@@H](OC)C(=O)[C@H](C)C[C@H](C)/C=C/C=C/C=C/1C [Rapamycin C-7, analog 7b] | 2500 | 3.7
8 | CO[C@@H]1C[C@H](C[C@@H](C)[C@@H]2CC(=O)[C@H](C)/C=C(\C)[C@@H](O)[C@@H](OC)C(=O)[C@H](C)C[C@H](C)/C=C/C=C/C=C(\C)CC[C@@H]3CC[C@@H](C)[C@@](O)(O3)C(=O)C(=O)N3CCCC[C@H]3C(=O)O2)CC[C@H]1O [Rapamycin C-7, analog 12] | 2 | 1
9 | CO[C@@H]1C[C@H](C[C@@H](C)[C@@H]2CC(=O)[C@H](C)/C=C(\C)[C@@H](O)[C@@H](OC)C(=O)[C@H](C)C[C@H](C)/C=C/C=C/C=C(\C)[C@H](SC)C[C@@H]3CC[C@@H](C)[C@@](O)(O3)C(=O)C(=O)N3CCCC[C@H]3C(=O)O2)CC[C@H]1O [Rapamycin C-7, analog 6a] | 4 | 1
10 | CO[C@@H]1C[C@H](C[C@@H](C)[C@@H]2CC(=O)[C@H](C)/C=C(\C)[C@@H](O)[C@@H](OC)C(=O)[C@H](C)C[C@H](C)/C=C/C=C/C=C(\C)[C@H](OCc3ccc(Cl)cc3)C[C@@H]3CC[C@@H](C)[C@@](O)(O3)C(=O)C(=O)N3CCCC[C@H]3C(=O)O2)CC[C@H]1O [Rapamycin C-7, analog 16a] | 45 | 1
11 | CO[C@@H]1C[C@H](C[C@@H](C)[C@@H]2CC(=O)[C@H](C)/C=C(\C)[C@@H](O)[C@@H](OC)C(=O)[C@H](C)C[C@H](C)/C=C/C=C/C=C(\C)[C@@H](c3ccc[nH]3)C[C@@H]3CC[C@@H](C)[C@@](O)(O3)C(=O)C(=O)N3CCCC[C@H]3C(=O)O2)CC[C@H]1O [Rapamycin C-7, analog 11b] | 70 | 1.5
12 | CO[C@@H]1C[C@H](C[C@@H](C)[C@@H]2CC(=O)[C@H](C)/C=C(\C)[C@@H](O)[C@@H](OC)C(=O)[C@H](C)C[C@H](C)/C=C/C=C/C=C(\C)[C@@H](c3ccco3)C[C@@H]3CC[C@@H](C)[C@@](O)(O3)C(=O)C(=O)N3CCCC[C@H]3C(=O)O2)CC[C@H]1O [Rapamycin C-7, analog 10b] | 20 | 6
13 | COc1ccc([C@H]2C[C@@H]3CC[C@@H](C)[C@@](O)(O3)C(=O)C(=O)N3CCCC[C@H]3C(=O)O[C@H]([C@H](C)C[C@@H]3CC[C@@H](O)[C@H](OC)C3)CC(=O)[C@H](C)/C=C(\C)[C@@H](O)[C@@H](OC)C(=O)[C@H](C)C[C@H](C)/C=C/C=C/C=C/2C)c(OC)c1 [Rapamycin C-7, analog 8b] | > 1000 | 38
14 | CCO[C@@H]1C[C@@H]2CC[C@@H](C)[C@@](O)(O2)C(=O)C(=O)N2CCCC[C@H]2C(=O)O[C@H]([C@H](C)C[C@@H]2CC[C@@H](O)[C@H](OC)C2)CC(=O)[C@H](C)/C=C(\C)[C@@H](O)[C@@H](OC)C(=O)[C@H](C)C[C@H](C)/C=C/C=C/C=C/1C [Rapamycin C-7, analog 5a] | 10 | 3.5
15 | CCO[C@H]1C[C@@H]2CC[C@@H](C)[C@@](O)(O2)C(=O)C(=O)N2CCCC[C@H]2C(=O)O[C@H]([C@H](C)C[C@@H]2CC[C@@H](O)[C@H](OC)C2)CC(=O)[C@H](C)/C=C(\C)[C@@H](O)[C@@H](OC)C(=O)[C@H](C)C[C@H](C)/C=C/C=C/C=C/1C [Rapamycin C-7, analog 5b] | 200 | 4
16 | CO[C@@H]1C[C@H](C[C@@H](C)[C@@H]2CC(=O)[C@H](C)/C=C(\C)[C@@H](O)[C@@H](OC)C(=O)[C@H](C)C[C@H](C)/C=C/C=C/C=C(\C)[C@H](c3ccco3)C[C@@H]3CC[C@@H](C)[C@@](O)(O3)C(=O)C(=O)N3CCCC[C@H]3C(=O)O2)CC[C@H]1O [Rapamycin C-7, analog 10a] | 20 | 3
17 | CO[C@@H]1C[C@H](C[C@@H](C)[C@@H]2CC(=O)[C@H](C)/C=C(\C)[C@@H](O)[C@@H](OC)C(=O)[C@H](C)C[C@H](C)/C=C/C=C/C=C(\C)[C@H](OCc3cccc([N+](=O)[O-])c3)C[C@@H]3CC[C@@H](C)[C@@](O)(O3)C(=O)C(=O)N3CCCC[C@H]3C(=O)O2)CC[C@H]1O [Rapamycin C-7, analog 15a] | 50 | 7
18 | CO[C@@H]1C[C@H](C[C@@H](C)[C@@H]2CC(=O)[C@H](C)/C=C(\C)[C@@H](O)[C@@H](OC)C(=O)[C@H](C)C[C@H](C)/C=C/C=C/C=C(\C)[C@@H](SC)C[C@@H]3CC[C@@H](C)[C@@](O)(O3)C(=O)C(=O)N3CCCC[C@H]3C(=O)O2)CC[C@H]1O [Rapamycin C-7, analog 6b] | 4 | 1
19 | CO[C@@H]1C[C@H](C[C@@H](C)[C@@H]2CC(=O)[C@H](C)/C=C(\C)[C@@H](O)[C@@H](OC)C(=O)[C@H](C)C[C@H](C)C=CC=CC=C(C)C(=O)C[C@@H]3CC[C@@H](C)[C@@](O)(O3)C(=O)C(=O)N3CCCC[C@H]3C(=O)O2)CC[C@H]1O [Rapamycin C-7, analog 13] | 300 | 29
